According to patent US20150141435A1, “2-PYRIDONE ANTIMICROBIAL COMPOSITIONS” (Emergent BioSolutions, priority 2010, published 2015):
Converted amounts (≈) assume the structure as drawn. Where a name gives a salt, the structure may show the parent alone. Read-outs that look alike come from different tables or passages of the source.

Key:
E. faecium ATCC 19434 = assay: MIC, CLSI broth microdilution (Table 1); type: cell-based; conditions: Enterococcus faecium, ATCC19434; Gram positive; MHB, 37° C., 16-20 hours; read-out: MIC E. faecium ATCC 19434
[1] = test system: Burkholderia mallei ATCC 23344; assay: microbe, parasite or virus in culture; type: cell-based; conditions: ATCC23344
H. influenzae ATCC 49247 = assay: MIC, CLSI broth microdilution (Table 2); type: cell-based; conditions: Haemophilus influenzae, ATCC49247; Gram negative; MHB, 37° C., 16-20 hours; read-out: MIC H. influenzae ATCC 49247
Yersinia pestis C092 = assay: microbe, parasite or virus in culture; type: cell-based
[2] = test system: Burkholderia pseudomallei ATCC 23343; assay: microbe, parasite or virus in culture; type: cell-based; conditions: ATCC23343
[3] = test system: S. aureus BAA-1720 (MRSA, FQ-R); assay: MIC, CLSI broth microdilution (Table 1); type: cell-based; conditions: Staphylococcus aureus; Gram positive; MHB, 37° C., 16-20 hours; read-out: MIC S. aureus BAA-1720 (MRSA, FQ-R)
[4] = test system: S. maltophilia ATCC 17677; assay: MIC, CLSI broth microdilution (Table 2); type: cell-based; conditions: Stenotrophomonas maltophilia, ATCC17677; Gram negative; MHB, 37° C., 16-20 hours; read-out: MIC S. maltophilia ATCC 17677
[5] = test system: Staphylococcus aureus (16 strains); assay: MIC range, broader panel incl. clinical isolates (Table 3); type: cell-based
A. baumannii ATCC 19606 = assay: MIC, CLSI broth microdilution (Table 2); type: cell-based; conditions: Acinetobacter baumannii
[6] = test system: Francisella tularensis Schu S4; assay: microbe, parasite or virus in culture; type: cell-based; conditions: SCHUS4
S. pneumonia ATCC 49619 = assay: MIC, CLSI broth microdilution (Table 1); type: cell-based; conditions: Streptococcus pneumoniae
[7] = test system: Bacillus anthracis Ames strain; assay: microbe, parasite or virus in culture; type: cell-based
E. coli ATCC 25922 = assay: MIC, CLSI broth microdilution (Table 2); type: cell-based; conditions: Escherichia coli, ATCC25922; Gram negative; MHB, 37° C., 16-20 hours; read-out: MIC E. coli ATCC 25922
[8] = test system: Burkholderia cepacia (5 strains); assay: MIC range, broader panel incl. clinical isolates (Table 4); type: cell-based
K. pneumoniae ATCC 33495 = assay: MIC, CLSI broth microdilution (Table 2); type: cell-based; conditions: Klebsiella pneumoniae, ATCC33495; Gram negative; MHB, 37° C., 16-20 hours; read-out: MIC K. pneumoniae ATCC 33495
S. aureus ATCC 25923 = assay: MIC, CLSI broth microdilution (Table 1); type: cell-based; conditions: Staphylococcus aureus, ATCC25923; Gram positive; MHB, 37° C., 16-20 hours; read-out: MIC S. aureus ATCC 25923
[9] = test system: S. aureus ATCC 43300 (MRSA, FQ-S); assay: MIC, CLSI broth microdilution (Table 1); type: cell-based; conditions: Staphylococcus aureus; Gram positive; MHB, 37° C., 16-20 hours; read-out: MIC S. aureus ATCC 43300 (MRSA, FQ-S)
[10] = test system: Brucella abortus ATCC 23448; assay: microbe, parasite or virus in culture; type: cell-based; conditions: ATCC23448
P. aeruginosa ATCC 27853 = assay: MIC, CLSI broth microdilution (Table 2); type: cell-based; conditions: Pseudomonas aeruginosa, ATCC27853; Gram negative; MHB, 37° C., 16-20 hours; read-out: MIC P. aeruginosa ATCC 27853
E. faecalis ATCC 29212 = assay: MIC, CLSI broth microdilution (Table 1); type: cell-based; conditions: Enterococcus faecalis, ATCC29212; Gram positive; MHB, 37° C., 16-20 hours; read-out: MIC E. faecalis ATCC 29212
[11] = test system: Escherichia coli (6 strains); assay: MIC range, broader panel incl. clinical isolates (Table 4); type: cell-based
[12] = test system: Streptococcus pneumonia (5 strains); assay: MIC range, broader panel incl. clinical isolates (Table 3); type: cell-based; conditions: Streptococcus pneumoniae
[13] = test system: Haemophilus influenza (5 strains); assay: MIC range, broader panel incl. clinical isolates (Table 4); type: cell-based, Haemophilus influenzae
[14] = test system: Klebsiella pneumonia (4 strains); assay: as above; type: cell-based; conditions: Klebsiella pneumoniae
[15] = test system: Streptococcus pyogenes (4 strains); assay: MIC range, broader panel incl. clinical isolates (Table 3); type: cell-based
[16] = test system: Pseudomonas aeruginosa (12 strains); assay: MIC range, broader panel incl. clinical isolates (Table 4); type: cell-based
[17] = test system: Acinetobacter baumannii (12 strains); assay: as above; type: cell-based; conditions: Median of 12 strains
[18] = test system: Enterococcus faecalis (5 strains); assay: MIC range, broader panel incl. clinical isolates (Table 3); type: cell-based
[19] = test system: Group C Streptococcus (4 strains); assay: as above; type: cell-based
[20] = test system: Enterococcus faecium (3 strains); assay: as above; type: cell-based
[21] = ATCC19606, Gram negative, MHB, 37° C., 16-20 hours, read-out: MIC A. baumannii B. ATCC 19606
[22] = ATCC49619, Gram positive, MHB, 37° C., 16-20 hours, read-out: MIC S. pneumonia ATCC 49619

Cc1c(C2=CCNCC2)ccn2c(=O)c(C(=O)O)cc(C3CC3)c12 [Example 42, 1-cyclopropyl-9-methyl-4-oxo-8-(1,2,3,6-tetrahydropyridin-4-yl)-4H-quinolizine-3-carboxylic acid]
MIC (E. faecium ATCC 19434): > 8 µg/mL | MIC [1]: 2 µg/mL (≈ 6.17 µM) | MIC (H. influenzae ATCC 49247): 0.064 µg/mL (≈ 0.197 µM) | MIC (Yersinia pestis C092): 0.5 to 1 µg/mL (≈ 1.54 to 3.08 µM) | MIC [2]: 4 µg/mL (≈ 12.3 µM) | MIC [3]: > 8 µg/mL | MIC [4]: 1 µg/mL (≈ 3.08 µM) | MIC Range High, Staphylococcus aureus (16 strains) ([5]; High of 16 strains): 32 µg/mL (≈ 98.6 µM) | MIC Range Low, Staphylococcus aureus (16 strains) ([5]; Low of 16 strains): 0.5 µg/mL (≈ 1.54 µM) | MIC Range Median, Staphylococcus aureus (16 strains) ([5]; Median of 16 strains): 16.25 µg/mL (≈ 50.1 µM) | MIC (A. baumannii ATCC 19606; [21]): 2 µg/mL (≈ 6.17 µM) | MIC [6]: 0.25 to 0.5 µg/mL (≈ 0.771 to 1.54 µM) | MIC (S. pneumonia ATCC 49619; [22]): 2 µg/mL (≈ 6.17 µM) | MIC [7]: 0.25 µg/mL (≈ 0.771 µM) | MIC (E. coli ATCC 25922): 0.064 µg/mL (≈ 0.197 µM) | MIC Range High, Burkholderia cepacia (5 strains) ([8]; High of 5 strains): 2 µg/mL (≈ 6.17 µM) | MIC Range Low, Burkholderia cepacia (5 strains) ([8]; Low of 5 strains): 2 µg/mL (≈ 6.17 µM) | MIC Range Median, Burkholderia cepacia (5 strains) ([8]; Median of 5 strains): 2 µg/mL (≈ 6.17 µM) | MIC (K. pneumoniae ATCC 33495): 0.125 µg/mL (≈ 0.385 µM)

Cc1c(-c2ccc(CO)cc2)ccn2c(=O)c(C(=O)O)cc(C3CC3)c12 [Example 48 K salt, 1-cyclopropyl-8-(4-hydroxy-methyl-phenyl)-9-methyl-4-oxo-4H-quinolizine-3-carboxylic acid]
MIC (E. faecium ATCC 19434): 1 µg/mL | MIC [1]: 0.125 µg/mL | MIC (H. influenzae ATCC 49247): ≤ 0.004 µg/mL | MIC (Yersinia pestis C092): 0.031 µg/mL | MIC [2]: 0.125 µg/mL | MIC [3]: 0.5 µg/mL | MIC (S. aureus ATCC 25923): 0.008 to 0.016 µg/mL | MIC [4]: 0.25 µg/mL | MIC (A. baumannii ATCC 19606; ATCC19606, read-out: MIC A. baumannii B. ATCC 19606): 0.125 µg/mL | MIC [6]: 0.016 µg/mL | MIC [9]: 0.008 µg/mL | MIC (S. pneumonia ATCC 49619; ATCC49619, read-out: MIC S. pneumonia ATCC 49619): 0.125 µg/mL | MIC [10]: 0.031 µg/mL | MIC [7]: 0.008 µg/mL | MIC (P. aeruginosa ATCC 27853): 2 µg/mL | MIC (E. coli ATCC 25922): 0.064 µg/mL | MIC (E. faecalis ATCC 29212): 0.032 to 0.064 µg/mL | MIC (K. pneumoniae ATCC 33495): 0.25 µg/mL

C[C@H]1COc2c(N3CCN(C)CC3)c(F)cc3c(=O)c(C(=O)O)cn1c23 [Levofloxacin]
MIC (E. faecium ATCC 19434): 8 µg/mL (≈ 22.1 µM) | MIC (H. influenzae ATCC 49247): 0.016 µg/mL (≈ 0.0443 µM) | MIC ([11]; High of 6 strains, read-out: MIC Range High, Escherichia coli (6 strains)): ≥ 16 µg/mL | MIC ([11]; Low of 6 strains, read-out: MIC Range Low, Escherichia coli (6 strains)): 0.015 µg/mL (≈ 0.0415 µM) | MIC50 ([11]; Median of 6 strains): ≥ 16 µg/mL | MIC [3]: > 8 µg/mL | MIC (S. aureus ATCC 25923): 0.25 µg/mL (≈ 0.692 µM) | MIC [4]: 0.25 µg/mL (≈ 0.692 µM) | MIC ([12]; High of 5 strains, read-out: MIC Range High, Streptococcus pneumonia (5 strains)): 2 µg/mL (≈ 5.53 µM) | MIC ([12]; Low of 5 strains, read-out: MIC Range Low, Streptococcus pneumonia (5 strains)): 0.5 µg/mL (≈ 1.38 µM) | MIC50 ([12]; Median of 5 strains): 1 µg/mL (≈ 2.77 µM) | MIC ([5]; Staphylococcus aureus, High of 16 strains, read-out: MIC Range High, Staphylococcus aureus (16 strains)): ≥ 16 µg/mL | MIC ([5]; Staphylococcus aureus, Low of 16 strains, read-out: MIC Range Low, Staphylococcus aureus (16 strains)): 0.12 µg/mL (≈ 0.332 µM) | MIC50 ([5]; Staphylococcus aureus, Median of 16 strains): 0.25 µg/mL (≈ 0.692 µM) | MIC (A. baumannii ATCC 19606; [21]): 0.25 µg/mL (≈ 0.692 µM) | MIC ([13]; High of 5 strains, read-out: MIC Range High, Haemophilus influenza (5 strains)): 0.015 µg/mL (≈ 0.0415 µM) | MIC ([13]; Low of 5 strains, read-out: MIC Range Low, Haemophilus influenza (5 strains)): 0.008 µg/mL (≈ 0.0221 µM) | MIC50 ([13]; Median of 5 strains): 0.015 µg/mL (≈ 0.0415 µM) | MIC ([14]; High of 4 strains, read-out: MIC Range High, Klebsiella pneumonia (4 strains)): 2 µg/mL (≈ 5.53 µM) | MIC ([14]; Low of 4 strains, read-out: MIC Range Low, Klebsiella pneumonia (4 strains)): 0.03 µg/mL (≈ 0.083 µM) | MIC50 ([14]; Median of 4 strains): 2 µg/mL (≈ 5.53 µM) | MIC [9]: 0.125 µg/mL (≈ 0.346 µM) | MIC (S. pneumonia ATCC 49619; [22]): 0.5 µg/mL (≈ 1.38 µM) | MIC ([15]; High of 4 strains, read-out: MIC Range High, Streptococcus pyogenes (4 strains)): 2 µg/mL (≈ 5.53 µM) | MIC ([15]; Low of 4 strains, read-out: MIC Range Low, Streptococcus pyogenes (4 strains)): 0.5 µg/mL (≈ 1.38 µM) | MIC50 ([15]; Median of 4 strains): 0.75 µg/mL (≈ 2.08 µM) | MIC ([16]; High of 12 strains, read-out: MIC Range High, Pseudomonas aeruginosa (12 strains)): ≥ 16 µg/mL | MIC ([16]; Low of 12 strains, read-out: MIC Range Low, Pseudomonas aeruginosa (12 strains)): 1 µg/mL (≈ 2.77 µM) | MIC50 ([16]; Median of 12 strains): ≥ 16 µg/mL | MIC50 [17]: ≥ 16 µg/mL | MIC ([18]; High of 5 strains, read-out: MIC Range High, Enterococcus faecalis (5 strains)): ≥ 16 µg/mL | MIC ([18]; Low of 5 strains, read-out: MIC Range Low, Enterococcus faecalis (5 strains)): 1 µg/mL (≈ 2.77 µM) | MIC50 ([18]; Median of 5 strains): 2 µg/mL (≈ 5.53 µM) | MIC ([19]; High of 4 strains, read-out: MIC Range High, Group C Streptococcus (4 strains)): 1 µg/mL (≈ 2.77 µM) | MIC ([19]; Low of 4 strains, read-out: MIC Range Low, Group C Streptococcus (4 strains)): 0.5 µg/mL (≈ 1.38 µM) | MIC50 ([19]; Median of 4 strains): 0.75 µg/mL (≈ 2.08 µM) | MIC (E. faecalis ATCC 29212): 1 µg/mL (≈ 2.77 µM) | MIC ([20]; High of 3 strains, read-out: MIC Range High, Enterococcus faecium (3 strains)): ≥ 16 µg/mL | MIC ([20]; Low of 3 strains, read-out: MIC Range Low, Enterococcus faecium (3 strains)): 2 µg/mL (≈ 5.53 µM) | MIC50 ([20]; Median of 3 strains): ≥ 16 µg/mL | MIC ([8]; Burkholderia cepacia, High of 5 strains, read-out: MIC Range High, Burkholderia cepacia (5 strains)): 2 µg/mL (≈ 5.53 µM) | MIC ([8]; Burkholderia cepacia, Low of 5 strains, read-out: MIC Range Low, Burkholderia cepacia (5 strains)): 1 µg/mL (≈ 2.77 µM) | MIC50 ([8]; Burkholderia cepacia, Median of 5 strains): 2 µg/mL (≈ 5.53 µM) | MIC (K. pneumoniae ATCC 33495): 0.032 µg/mL (≈ 0.0886 µM)
